Laboratory results reported in patent US20250206722A1, “SMALL MOLECULE INHIBITORS OF TEA DOMAIN FAMILY MEMBERS” (The Scripps Research Institute, priority 2022, published 2025).

Columns and labels:
NCI-H226 cells = experiment: NCI-H226 proliferation assay (in house); assay type: cell-based; details: Homo sapiens, 120 h, 5 days, Cell TiterGlo, 20-point 1:2 dilution from 20 μM
Procedure: NCI-H226 Proliferation Assay
NCI-H226 cells were obtained from American Type Culture Collection (ATCC, CRL-5826) and cultured in RPMI 1640 with L-glutamine (Corning, 10-040-CV) supplemented with 10% fetal bovine serum (Gibco, 10438-026) and 1% penicillin-streptomycin (Gibco, 15070063). Cells were trypsinized, resuspended in growth medium, and diluted to a concentrated of 10,000 cells/mL. 500 cells, 50 μL of cell suspension, per well were then plated in a white 384-well plate (Corning) and incubated at 37° C., 5% CO2. After 24 hours incubation, 100 nL of test compounds in DMSO, 20-point 1:2 dilution starting from 20 μM (final concentration) in triplicate, were transferred to each well using an Agilent Bravo instrument outfitted with a pintool head. Cells were incubated at 37° C., 5% CO2 for 5 days followed by the addition of 30 μL of Cell TiterGlo (Promega; diluted 1:6 in water) to each well and luminescence values recorded using an EnVision plate reader. […]

[1] = tested on: transcriptional activity of TEADs; experiment: TEAD reporter assay (MCF7 TEAD-LUC reporter cells); assay type: cell-based; details: Homo sapiens, 24 hours, BrightGlo luminescence
Procedure: MCF7 TEAD-LUC reporter cells were obtained from BPS Bioscience, Inc. and cultured in DMEM medium (Corning, 10-013-CV) supplemented with 10% fetal bovine serum (Gibco, 10438-026), 1% penicillin-streptomycin (Gibco, 15070063), 1% non-essential amino acids (Gibco, 15070063), and 10 μg/mL insulin (Sigma, 10516). Cells were trypsinized, resuspended in growth medium, and diluted to a concentrated of 100,000 cells/mL. 5,000 cells, 50 μL of cell suspension, per well were then plated in a white 384-well plate (Corning) and incubated at 37° C., 5% CO2. After 24 hours incubation, 100 nL of test compounds in DMSO, 20-point 1:2 dilution starting from 20 μM (final concentration) in triplicate, were transferred to each well using an Agilent Bravo instrument outfitted with a pintool head. Cells were incubated at 37° C., 5% CO2 for 24 hours followed by the addition of 30 μL of BrightGlo (Promega; diluted 1:3 in water) to each well and luminescence values recorded using an EnVision plate reader.
The in vitro assay results of the compounds in the present invention were included in Table 1. The compounds described herein, inhibited the transcriptional activity of TEADs, as assessed by decreased luminance from a TEAD reporter cell line (MCF7 TEAD-LUC) in response to compound treatment.

An IC50 (NCI-H226 cells) of 23.9 µM and an IC50 [1] of 8 nM were found for `C=CC(=O)N[C@H]1C[C@H](Nc2nccnc2Nc2ccc(C(F)(F)F)cc2)C1` [Example 4, N-((1r,3r)-3-((3-((4-(trifluoromethyl)phenyl)amino)pyrazin-2-yl)amino)cyclobutyl) acrylamide] in this work.

In the case of `C=CC(=O)N1CCN(c2nccnc2Nc2ccc(C(F)(F)F)cc2)C[C@@H]1CCO` [Example 17, (S)-1-(2-(2-hydroxyethyl)-4-(3-((4-(trifluoromethyl)phenyl)amino)pyrazin-2-yl)piperazin-1-yl)prop-2-en-1-one], the IC50 (NCI-H226 cells) is reported as 3.3 µM and the IC50 [1] is reported as > 20000 nM.

An IC50 (NCI-H226 cells) of 0.701 µM and an IC50 [1] of 134 nM were found for `C=CC(=O)N1CCN(c2nccnc2Nc2ccc(C(F)(F)F)cc2)C[C@@H]1C(N)=O` [Example 18, (R)-1-acryloyl-4-(3-((4-(trifluoromethyl)phenyl)amino)pyrazin-2-yl)piperazine-2-carboxamide] in this work.

With `C=CC(=O)N1CCN(c2nccnc2Nc2ccc(C(F)(F)F)cc2)C[C@H]1C(N)=O` [Example 19, (S)-1-acryloyl-4-(3-((4-(trifluoromethyl)phenyl)amino)pyrazin-2-yl)piperazine-2-carboxamide] the IC50 (NCI-H226 cells) was > 20 µM and the IC50 [1] was > 20000 nM.

For `C=CC(=O)N1CCN(c2nccnc2Nc2ccc(C(F)(F)F)cc2)CC1CC(N)=O` (stereo not shown) [Example 20, 2-(1-acryloyl-4-(3-((4-(trifluoromethyl)phenyl)amino)pyrazin-2-yl)piperazin-2-yl)acetamide], the IC50 (NCI-H226 cells) was 2.73 µM and the IC50 [1] was > 20000 nM.

An IC50 (NCI-H226 cells) of 5.04 µM and an IC50 [1] of 5 nM were found for `C=CC(=O)N1CCN(c2nccnc2Nc2ccc(OCF)cc2)CC1` [Example 36, 1-(4-(3-((4-(fluoromethoxy)phenyl)amino)pyrazin-2-yl)piperazin-1-yl)prop-2-en-1-one] in this work.

`C=CC(=O)N1CCN(c2nccnc2Nc2ccc(C(F)F)cn2)CC1` [Example 40, 1-(4-(3-((5-(difluoromethyl)pyridin-2-yl)amino)pyrazin-2-yl)piperazin-1-yl)prop-2-en-1-one] was tested, and the IC50 (NCI-H226 cells) was > 20 µM and the IC50 [1] was 4 nM.

An IC50 (NCI-H226 cells) of 0.166 µM and an IC50 [1] of 17 nM were found for `C=CC(=O)N1CCN(c2nccnc2N(C)c2ccc(C(F)(F)F)cn2)CC1` [Example 42, 1-(4-(3-(methyl(5-(trifluoromethyl)pyridin-2-yl)amino)pyrazin-2-yl)piperazin-1-yl)prop-2-en-1-one] in this work.

An IC50 (NCI-H226 cells) of 0.043 µM and an IC50 [1] of 4 nM were found for `C=CC(=O)N1CCN(c2nccnc2Nc2ccc(C(F)F)nc2)CC1` [Example 47, 1-(4-(3-((6-(difluoromethyl)pyridin-3-yl)amino)pyrazin-2-yl)piperazin-1-yl)prop-2-en-1-one] in this work.

An IC50 (NCI-H226 cells) of 0.331 µM and an IC50 [1] of 6.7 nM were found for `C=C(F)C(=O)N1CCN(c2nccnc2Nc2cnc(C(F)(F)F)c(F)c2)CC1` [Example 51, 2-fluoro-1-(4-(3-((5-fluoro-6-(trifluoromethyl)pyridin-3-yl)amino)pyrazin-2-yl)piperazin-1-yl)prop-2-en-1-one] in this work.

An IC50 (NCI-H226 cells) of 0.076 µM and an IC50 [1] of 3.6 nM were found for `C=CC(=O)N1CCN(c2nccnc2Nc2ccc(C(F)(F)F)nc2)C[C@@H]1C` [Example 53, (S)-1-(2-methyl-4-(3-((6-(trifluoromethyl)pyridin-3-yl)amino)pyrazin-2-yl)piperazin-1-yl)prop-2-en-1-one] in this work.

An IC50 (NCI-H226 cells) of 0.192 µM and an IC50 [1] of 9 nM were found for `C=CC(=O)N1CCN(c2nccnc2Nc2ccc(C(F)(F)F)nc2)C[C@H]1C` [Example 54, (R)-1-(2-methyl-4-(3-((6-(trifluoromethyl)pyridin-3-yl)amino)pyrazin-2-yl)piperazin-1-yl)prop-2-en-1-one] in this work.

An IC50 (NCI-H226 cells) of 0.145 µM and an IC50 [1] of 16.5 nM were found for `C=C(F)C(=O)N1CC=C(c2nccnc2Nc2ccc(C(F)(F)F)nc2)CC1` [Example 56, 2-fluoro-1-(4-(3-((6-(trifluoromethyl)pyridin-3-yl)amino)pyrazin-2-yl)-3,6-dihydropyridin-1(2H)-yl)prop-2-en-1-one] in this work.

An IC50 (NCI-H226 cells) of 0.257 µM and an IC50 [1] of 5 nM were found for `C=CC(=O)N1CCC(c2nccnc2Nc2ccc(C(F)(F)F)nc2)CC1` [Example 61, 1-(4-(3-((6-(trifluoromethyl)pyridin-3-yl)amino)pyrazin-2-yl)piperidin-1-yl)prop-2-en-1-one] in this work.

An IC50 (NCI-H226 cells) of 8.67 µM and an IC50 [1] of 10.7 nM were found for `C=CC(=O)N1CC(Nc2nccnc2Nc2ccc(C(F)(F)F)nc2)C1` [Example 62, 1-(3-((3-((6-(trifluoromethyl)pyridin-3-yl)amino)pyrazin-2-yl)amino)azetidin-1-yl)prop-2-en-1-one] in this work.

An IC50 (NCI-H226 cells) of 3.12 µM and an IC50 [1] of 1680 nM were found for `C=C(F)C(=O)N1CC(Nc2nccnc2Nc2ccc(OC(F)(F)F)nc2)C1` [Example 64, 2-fluoro-1-(3-((3-((6-(trifluoromethoxy)pyridin-3-yl)amino)pyrazin-2-yl)amino)azetidin-1-yl)prop-2-en-1-one] in this work.

An IC50 (NCI-H226 cells) of 1.85 µM and an IC50 [1] of 18.6 nM were found for `C=C(F)C(=O)N1CC(Oc2nccnc2Nc2ccc(C(F)(F)F)nc2)C1` [Example 65, 2-fluoro-1-(3-((3-((6-(trifluoromethyl)pyridin-3-yl)amino)pyrazin-2-yl)oxy)azetidin-1-yl)prop-2-en-1-one] in this work.

An IC50 (NCI-H226 cells) of 0.708 µM and an IC50 [1] of 11 nM were found for `C=C(F)C(=O)N1CCN(c2nccnc2NC2C3CC2C3C(F)(F)F)CC1` (stereo not shown) [Example 68, 2-fluoro-1-(4-(3-((4-(trifluoromethyl)bicyclo[1.1.1]pentan-2-yl)amino)pyrazin-2-yl)piperazin-1-yl)prop-2-en-1-one] in this work.

An IC50 (NCI-H226 cells) of 0.028 µM and an IC50 [1] of 3 nM were found for `C=CC(=O)N1CCN(c2nccnc2Oc2ccc(OC)cc2)CC1` [Example 70, 1-(4-(3-(4-methoxyphenoxy)pyrazin-2-yl)piperazin-1-yl)prop-2-en-1-one] in this work.

An IC50 (NCI-H226 cells) of 0.112 µM and an IC50 [1] of 2.7 nM were found for `C=CC(=O)N1CCC(c2nccnc2Oc2ccc(C(F)(F)F)cn2)CC1` [Example 75, 1-(4-(3-((5-(trifluoromethyl)pyridin-2-yl)oxy)pyrazin-2-yl)piperidin-1-yl)prop-2-en-1-one] in this work.

An IC50 (NCI-H226 cells) of 0.008 µM and an IC50 [1] of 1.8 nM were found for `C=CC(=O)N1CCN(c2nccnc2Oc2ccc(C(F)(F)F)nc2)CC1` [Example 77, 1-(4-(3-((6-(trifluoromethyl)pyridin-3-yl)oxy)pyrazin-2-yl)piperazin-1-yl)prop-2-en-1-one] in this work.

An IC50 (NCI-H226 cells) of 2.97 µM and an IC50 [1] of 9.5 nM were found for `C=C(C(=O)N1CCC(c2nccnc2Oc2ccc(C(F)(F)F)nc2)CC1)C(F)(F)F` [Example 81, 2-(trifluoromethyl)-1-(4-(3-((6-(trifluoromethyl)pyridin-3-yl)oxy)pyrazin-2-yl)piperidin-1-yl)prop-2-en-1-one] in this work.

For `C=C(CN1CCC(c2nccnc2Oc2ccc(C(F)(F)F)nc2)CC1)C(=O)O` [Example 82, 2-((4-(3-((6-(trifluoromethyl)pyridin-3-yl)oxy)pyrazin-2-yl)piperidin-1-yl)methyl)acrylic acid], the IC50 (NCI-H226 cells) was > 20 µM and the IC50 [1] was > 20000 nM.

With `C=CC(=O)N1CC(Nc2nccnc2N2CC(c3ccc(F)cc3)C2)C1` [Example 108, 1-(3-((3-(3-(4-fluorophenyl)azetidin-1-yl)pyrazin-2-yl)amino)azetidin-1-yl)prop-2-en-1-one] the IC50 (NCI-H226 cells) was > 10 µM.

`C=C(F)C(=O)N1CC(Nc2nccnc2N2CC(c3ccc(F)cc3)C2)C1` [Example 109, 2-fluoro-1-(3-((3-(3-(4-fluorophenyl)azetidin-1-yl)pyrazin-2-yl)amino)azetidin-1-yl)prop-2-en-1-one] was tested, and the IC50 (NCI-H226 cells) was > 10 µM.

An IC50 (NCI-H226 cells) of 0.022 µM was found for `C=CC(=O)N1CCC(c2ncc(C)nc2Oc2ccc(C(F)(F)F)nc2)CC1` [Example 116, 1-(4-(5-methyl-3-((6-(trifluoromethyl)pyridin-3-yl)oxy)pyrazin-2-yl)piperidin-1-yl)prop-2-en-1-one] in this work.

An IC50 (NCI-H226 cells) of 0.158 µM was found for `C=C(F)C(=O)N1CCC(c2ncc(C)nc2Oc2ccc(C(F)(F)F)nc2)CC1` [Example 117, 2-fluoro-1-(4-(5-methyl-3-((6-(trifluoromethyl)pyridin-3-yl)oxy)pyrazin-2-yl)piperidin-1-yl)prop-2-en-1-one] in this work.

In the case of `C=CC(=O)N1CCC(c2nccn(-c3ncc(C(F)(F)F)cn3)c2=O)CC1` [Example 118, 3-(1-acryloylpiperidin-4-yl)-1-(5-(trifluoromethyl)pyrimidin-2-yl)pyrazin-2(1H)-one], the IC50 (NCI-H226 cells) is reported as > 10 µM.

An IC50 (NCI-H226 cells) of 66.8 µM was found for `C=C(F)C(=O)N1CCC(c2cncnc2Oc2ccc(C(F)(F)F)nc2)CC1` [Example 127, 2-fluoro-1-(4-(4-((6-(trifluoromethyl)pyridin-3-yl)oxy)pyrimidin-5-yl)piperidin-1-yl)prop-2-en-1-one] in this work.
